The text below walks through data of publication PMC4506530, “Small-Molecule Inhibitors That Target Protein–Protein Interactions in the RAD51 Family of Recombinases” (Chemmedchem, 2014).

Entries after “also recorded” stand apart in the source; their conditions may differ. Read-outs that look alike come from different tables or passages of the source.

Experiment [1] deals with T1, HumRADA2 (Pyrococcus furiosus, UniProt O74036, D220A/DEL288-314/E219S/I169M/K221M/V202Y/Y201A). The following applies: previously published fragment screening, humanised RadA, cited from earlier work.
In experiment [2] the target is T1, HumRADA2. The experiment is described as follows: Isothermal titration calorimetry (ITC), direct binding to HumRADA2. The following applies: for -TDS / DG / DH: ITC thermodynamic binding profile, Table S1; for LLE: LLE=pKD−clog P, clog P calculated with Instant JChem (ChemAxon). From the text:
We previously published fragment-screening results using a humanised RAD51 surrogate from Pyrococcus furiosus, which we refer to as HumRADA2 (previously referred to as MAYSAM RadA).[23] In this surrogate protein, the N-terminal domain with the oligomerisation sequence was removed to monomerise the protein and expose the FxxA binding site for screening, and six surface residues were mutated around the Phe pocket in order to humanise the protein in this region.
(§1) Supplemental Experimental Procedures
(§2) C-terminal ATPase domain of P. furiosus RadA (residues 108–349, with deletion of the “L2” loop residues 288–314) was expressed in E.coli and purified as described before using ion-exchange ad size exclusion chromatographies.[1] Purified protein was concentrated to 0.5 mM, flash frozen in liquid nitrogen and stored at -80C. Protein concentration was determined by measuring absorbance at 280 nm in 6M GndHCl and using calculated absorption coefficient […]
(§3) Isothermal Titration Calorimetry
(§4) ITC experiments were performed at 25°C on a MicroCal ITC-200 (GE Healthcare).
(§5) HumRadA2 (humanized RadA) (600 µM in 20 mM MES pH 6.0 with 100 mM NaCl and 0.5 mM EDTA was diluted with Tris buffer (200 mM, pH 7.5 with 100 mM NaCl), and DMSO was added to match to the ligand solution. In titrations with ATP, 5 mM MgCl2 was included in the ligand buffer and the protein buffer. Compounds in DMSO were diluted into the same Tris buffer to give a final concentration of 0.6–10 mM ligand in 10% DMSO and Tris buffer. Care was taken to ensure that the DMSO concentrations in the protein and ligand solutions were well matched so as to avoid artefacts arising from heats of dilution of DMSO. In a typical experiment, protein (60 µM) was loaded in the sample cell, and 16 injections (2.4 µL) of 4.8 s duration were made at 80 s intervals from a syringe loaded with ligand (0.6–10 mM) and rotating at 1000 rpm. In all titrations, an initial injection of ligand (0.4 µL) was made and discarded during data analysis. Control titrations of ligand to buffer were performed and […]
(§6) The thermodynamic parameters were obtained by fitting the data to a single-site-binding model by using Origin software and fixing the stoichiometry as 1.0 for […]

Experiment [3] deals with wild-type RadA. The experiment is described as follows: ITC, direct binding to unhumanised wild-type RadA. Details: species or system Pyrococcus furiosus. The settings on record: unhumanised wild-type RadA protein.
Experiment [4] has as its target T1, HumRADA2. The experiment can be described thus: Competitive ITC experiments to HumRADA2 (ligand titrated in the presence of compound). Type of experiment: binding. The settings on record: protein pre-incubated with compound (200 μM 5 c). As for the experimental part:
The KD measurement of each ligand was then repeated, but in the presence of 200 μM 5 c (bottom row titrations, Figure 2 B).
as §1, §2, §3, §4, §5, §6

Setting [5] is: tryptophan ester series (Table 1).
Setting [6] is: substituted tryptamine series (Table 2).

As to `COC(=O)c1cccc2[nH]ccc12` [4-methyl ester indole], the dissociation constant Kd in experiment [1] (read-out: KD) was 1300 µM.

Take `Cl.N[C@@H](Cc1c[nH]c2ccccc12)C(=O)OCCc1ccccc1` [5 c]: in experiment [2], the Kd came to 35 ± 4 µM, the “-TDS” value was -3.3 kcal/mol, the DG is -6.0 kcal/mol and the DH was -2.7 kcal/mol. For the same compound, in experiment [2] (setting [5]), the LLE is 1.1 and the “LE (ligand efficiency)” value is 0.26 kcal mol−1 per heavy atom. Besides, the “binding to wild-type RadA” value in experiment [3] is “no binding”. Besides, in experiment [4], the “competition with binding of Ac-FHTA-NH2 tetrapeptide” value was “competes with and blocks the binding; also recorded: shows competition with the FxxA binding site”; the “competition with binding of the RadA self-oligomerisation peptide” value is “competes with and blocks the binding; also recorded: shows competition with the FxxA binding site”; the “effect on binding of ATP” value is “not affected; also recorded: not the ATP binding site”.

`O=S(=O)(NCCc1c[nH]c2ccccc12)c1cc(Br)c(Cl)s1` [7 m]: in experiment [2], the equilibrium dissociation constant (Kd) worked out at 1.3 ± 0.1 µM, the “-TDS” value was -2.7 kcal/mol, the DG was -8.1 kcal/mol and the DH was -5.4 kcal/mol. Besides, in experiment [2] (setting [6]), the LLE is 1.5 and the “LE (ligand efficiency)” value was 0.36 kcal mol−1 per heavy atom. For the same compound, the “competition with binding of the RadA self-oligomerisation peptide” value in experiment [4] is “blockage of the binding”.

As for `COC(=O)[C@@H](N)Cc1c[nH]c2ccccc12` [compound 1, L-tryptophan methyl ester], in experiment [2], the “-TDS” value turned out to be 2.0 kcal/mol, the DG was -4.4 kcal/mol and the DH was -6.4 kcal/mol. In addition, in experiment [2] (setting [5]), the LLE was 1.9 and the “LE (ligand efficiency)” value turned out to be 0.28 kcal mol−1 per heavy atom. In addition, in experiment [1], the Kd was 570 µM.

As to `CNC(=O)C(N)Cc1c[nH]c2ccccc12` (stereo not drawn) [compound 2], in experiment [2], the affinity, expressed as Kd, was 1500 ± 24 µM; the “-TDS” value was found to be 1.3 kcal/mol; the DG is -3.8 kcal/mol; the DH is -5.1 kcal/mol. Further, in experiment [2] (setting [5]), the LLE was 2.2 and the “LE (ligand efficiency)” value is 0.24 kcal mol−1 per heavy atom.

As to `COC(=O)C(Cc1c[nH]c2ccccc12)NC(C)=O` (stereo not drawn) [compound 3], in experiment [2], the affinity, expressed as Kd, was 810 ± 19 µM; the “-TDS” value worked out at 0.9 kcal/mol; the DG was -4.2 kcal/mol; the DH was -5.1 kcal/mol. Moreover, in experiment [2] (setting [5]), the LLE is given as 2.0 and the “LE (ligand efficiency)” value came to 0.22 kcal mol−1 per heavy atom.

As to `CNC(=O)C(Cc1c[nH]c2ccccc12)NC(C)=O` (stereo not drawn) [compound 4], in experiment [2], the affinity, expressed as Kd, was 890 ± 15 µM; the “-TDS” value was 1.6 kcal/mol; the DG was -4.2 kcal/mol; the DH is -5.8 kcal/mol. Besides, in experiment [2] (setting [5]), the LLE is given as 2.6 and the “LE (ligand efficiency)” value is on record as 0.22 kcal mol−1 per heavy atom.

Regarding `c1ccc2[nH]ncc2c1` [indazole], the Kd in experiment [1] is 1000 µM.

Consider Ac-FHTA-NH2 [reference compound], for which the Kd in experiment [2] (ITC against apo protein, in the absence of 5 c, read-out: KD) was 250 µM; in experiment [1] (read-out: KD) it was 250 µM.
